For test [1], the system named is corn. Briefly: Example 1 field trial: corn silage quality after foliar RyzUp Smartgrass at V4. The conditions noted are these: vs untreated Control; 3.2 g GA3/acre (8 g/ha) at V4. The test is classed as in vivo, Zea mays (corn). Here is the method: (§1) Field trials were conducted at various locations. Portions of the field were treated with RyzUp® Smartgrass (40% (w/v) GA3 (available from Valent BioSciences Corporation), while other parts of the field were not treated. RyzUp® Smartgrass applications were limited to applications between V3 and V6, with spray volumes for foliar applications ranging from 10-25 gallons/acre.
(§2) Trials were harvested using commercial equipment at standard timings for corn silage. Both RyzUp® Smartgrass and untreated areas of the field were harvested separately in order to obtain biomass yield (ton/acre). Subsequently, the harvested plant material was used for producing silage.
(§3) Representative samples were taken for subsequent analysis. Forage was analyzed by standard methods to determine quality parameters including dry matter, crude protein, Acid Detergent Fiber (ADF), Neutral Detergent Fiber (NDF), and starch data. Calculations were included for moisture, adjusted crude protein, Total Digestible Nutrients (TDN), Net Energy for Lactation (NEL), Net Energy for Gain (NEG) and protein solubility. This information was then entered into the MILK 2006 University of Wisconsin Corn Silage evaluation system. Calculations of the milk production, energy content and digestibility per ton of corn biomass were carried out using a calculation method described in the following references: Schwab, E. C., and R. D. Shaver. (2001); b) Schwab, E C et al. (2003); and c) Undersander, D J et al., (1993)
Modern corn hybrid varieties were grown in a field trial. RyzUp® Smartgrass (40% GA3) was applied at V4 growth stage at a rate of 3.2 g GA^3/acre (8 g/ha). In this trial, silage quality data were analyzed for each variety and the means were used to calculate milk production (Table 1). Percent moisture, crude protein, ADF and NDF were decreased while TDN, starch, and milk production were increased.

Test [2] concerns corn. Briefly: Example 2 field trial: corn silage quality after RyzUp Smartgrass at V5 under drought stress. The test is classed as in vivo, Zea mays (corn). The conditions noted are these: vs untreated Control, 6.4 g GA3/acre (16 g/ha) at V5. The method, then:
as §1, §2, §3
Corn grown in a field trial was treated at the V5 stage with RyzUp® Smartgrass (GA3 (w/v) 40%) at a rate of 6.4 g GA^3/acre (16 g/ha). Treatments were made in a spray volume of 15 gallons of water per acre with added surfactant. The overall conditions of this trial were drought stress both before and following application.

The subject of a further test is alfalfa. As to conditions: GA3 applications; cited from earlier work.
Another test concerns smooth bromegrass. The conditions noted are these: GA3 applications; cited from earlier work.

On to `C=C1C[C@]23C[C@@]1(O)CC[C@H]2[C@@]12C=C[C@H](O)[C@@](C)(C(=O)O1)[C@H]2[C@@H]3C(=O)O` [GA3, gibberellin 3], for which, in the test on corn [1], the “% NDF, Percent Difference” value is recorded as −2.7%; the “% Starch, Percent Difference” value is “+16.7%”; the “% TDN, Percent Difference” value is given as “+1.2%”; the “Milk (lbs/t), Percent Difference” value was “+2.6%”. Further, in the test with corn [2], the “% NDF, Percent Difference” value is listed as −17.8%; the “% Starch, Percent Difference” value is “+55.4%”; the “% TDN, Percent Difference” value is “+8%”. Also, in the test with alfalfa, the dry weight entry was “dose-dependent increase”, the growth entry is “dose-dependent increase” and the “in vitro digestible dry matter (IVDDM)” value is “decreased”. Further, in the test on smooth bromegrass, the dry weight entry is reported as “dose-dependent increase”, the growth entry was “dose-dependent increase” and the “in vitro digestible dry matter (IVDDM)” value is given as “decreased”.

These data come from patent US20200187527A1, “METHODS TO INCREASE SILAGE QUALITY IN CROPS” (Valent BioSciences LLC, priority 2013, published 2020).
